Experimental data reported in paper PMC10553830, “Functional and structural analyses reveal that a dual domain sialidase protects bacteria from complement killing through desialylation of complement factors” (PLOS Pathogens, 2023).

Key:
[1] = biological target: T1, PG0352 (Porphyromonas gingivalis, UniProt Q7MX62); experiment: X-ray crystal structure, […] Å (soaked); format: binding; settings: 10 mM soak, 20 min; sialidase active site; sialidase inhibitor
T1 construct: gene PG_0352; N-terminal His6, residues 31-526 (CBM 31-176 plus sialidase domain 177-523), signal peptide removed, codon-optimized, pQE80L, E. coli BL21-Star (DE3); monomer, ~52 kDa by SEC
T1 sequence (Q7MX62 entry or part of it): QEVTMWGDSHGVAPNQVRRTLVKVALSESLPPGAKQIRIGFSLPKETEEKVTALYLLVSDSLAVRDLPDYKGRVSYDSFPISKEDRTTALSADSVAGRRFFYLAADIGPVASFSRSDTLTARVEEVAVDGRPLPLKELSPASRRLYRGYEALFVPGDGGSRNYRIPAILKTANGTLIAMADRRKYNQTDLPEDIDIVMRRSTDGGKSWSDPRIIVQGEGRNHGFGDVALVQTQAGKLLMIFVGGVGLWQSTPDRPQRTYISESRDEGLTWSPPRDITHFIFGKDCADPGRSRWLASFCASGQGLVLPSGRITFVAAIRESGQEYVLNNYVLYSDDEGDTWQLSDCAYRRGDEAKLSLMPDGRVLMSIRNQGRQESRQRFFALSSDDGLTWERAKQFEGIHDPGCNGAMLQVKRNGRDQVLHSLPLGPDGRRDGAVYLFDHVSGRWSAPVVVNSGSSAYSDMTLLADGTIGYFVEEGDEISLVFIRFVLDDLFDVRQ

[2] = biological target: T1, PG0352; experiment: X-ray crystal structure, […] Å (soaked); format: binding; settings: 27 mM soak, 60 min; sialidase active site; alpha anomer
[3] = biological target: T1, PG0352; experiment: X-ray crystal structure, […] Å (co-crystallized); format: binding; settings: 5 mM ligand; bound in CBM cleft, not the active site
[4] = tested on: CC(=O)N[C@H]1[C@H]([C@H](O)[C@H](O)CO)O[C@@](Oc2ccc3c(C)cc(=O)oc3c2)(C(=O)O)C[C@@H]1O; experiment: purified protein; settings: 10 mM sodium citrate, pH 5.0, 37 °C, 1 min, 5 nM enzyme
[5] = tested on: Cc1cc(=O)oc2cc(O[C@@]3(C(=O)O)C[C@H](O)[C@@H](NC(=O)CO)[C@H]([C@H](O)[C@H](O)CO)O3)ccc12; experiment: purified protein; settings: 10 mM sodium citrate, pH 5.0, 37 °C, 1 min, 5 nM enzyme

Compound: CC(=O)N[C@H]1[C@H]([C@H](O)[C@H](O)CO)OC(C(=O)O)=C[C@@H]1O [DANA]
- X-ray crystal structure, 2.14 Å (soaked) [1]: DANA binds within the sialidase active site in a similar conformation

Compound: CC(=O)N[C@H]1[C@H]([C@H](O)[C@H](O)CO)OC(O)(C(=O)O)C[C@@H]1O (some centres unmarked) [Neu5Ac]
- X-ray crystal structure, 1.93 Å (soaked) [2]: Clear electron density was visible for Neu5Ac bound in its alpha anomeric form

Compound: OCC1(O)OC[C@@H](O)[C@@H](O)[C@@H]1O (some centres unmarked) [fructose]
- X-ray crystal structure, 2.29 Å (co-crystallized) [3]: we co-crystallized PG0352 with fructose and determined the structure of the complex

Compound: PG0352 (Porphyromonas gingivalis W83)
- Km [4]: 39.31 ± 6.540 µM
- Km [5]: 81.65 ± 20.56 µM
